According to PubChem BioAssay AID2060910 (Molecular Pharmacology Branch, DTP, NCI, 2025):

System: 242566-281-R-J2-PDC complex spheroid viability
Assay: Anticancer human tumor 242566-281-R-J2-PDC patient-derived pancreatic carcinoma cell line growth inhibition [RAS]
Details: for IC50: curve of first compound; for viability, T/C: stronger effect = lower value
Procedure, shortened: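 Tumour cells grown as complex spheroids with HUVEC endothelial cells and mesenchymal stem cells, treated with RAS pathway inhibitor combinations. Each agent spans half-log steps from near clinical Cmax, or 10 microM where Cmax is unknown.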

[1] = second compound 0.00316 µM, first compound 0.0316 µM
[2] = second compound 0.00316 µM, first compound 0.1 µM
[3] = second compound 0.00316 µM, first compound 0.316 µM
[4] = second compound 0.00316 µM, first compound 1 µM
[5] = second compound 0.00316 µM, first compound 3.16 µM
[6] = second compound 0.00316 µM, first compound 10 µM
[7] = second compound 0.01 µM, first compound 0.0316 µM
[8] = second compound 0.01 µM, first compound 0.1 µM
[9] = second compound 0.01 µM, first compound 0.316 µM
[10] = second compound 0.01 µM, first compound 1 µM
[11] = second compound 0.01 µM, first compound 3.16 µM
[12] = second compound 0.01 µM, first compound 10 µM
[13] = second compound 0.0316 µM, first compound 0.0316 µM
[14] = second compound 0.0316 µM, first compound 0.1 µM
[15] = second compound 0.0316 µM, first compound 0.316 µM
[16] = second compound 0.0316 µM, first compound 1 µM
[17] = second compound 0.0316 µM, first compound 3.16 µM
[18] = second compound 0.0316 µM, first compound 10 µM
[19] = second compound 0.1 µM, first compound 0.0316 µM
[20] = second compound 0.1 µM, first compound 0.1 µM
[21] = second compound 0.1 µM, first compound 0.316 µM
[22] = second compound 0.1 µM, first compound 1 µM
[23] = second compound 0.1 µM, first compound 3.16 µM
[24] = second compound 0.1 µM, first compound 10 µM
[25] = second compound 0.316 µM, first compound 0.0316 µM
[26] = second compound 0.316 µM, first compound 0.1 µM
[27] = second compound 0.316 µM, first compound 0.316 µM
[28] = second compound 0.316 µM, first compound 1 µM
[29] = second compound 0.316 µM, first compound 3.16 µM
[30] = second compound 0.316 µM, first compound 10 µM
[31] = second compound 1 µM, first compound 0.0316 µM
[32] = second compound 1 µM, first compound 0.1 µM
[33] = second compound 1 µM, first compound 0.316 µM
[34] = second compound 1 µM, first compound 1 µM
[35] = second compound 1 µM, first compound 3.16 µM
[36] = second compound 1 µM, first compound 10 µM
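Note: spheroids exposed to compound for 7 days before readout.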
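Throughout, for viability, T/C: 100% = DMSO vehicle control wells.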

## CC(Nc1ccc2c(c1)OCCn1cc(N3C(=O)OCC3C(F)F)nc1-2)C(N)=O (centres undefined) + C=CC(=O)N1CCN(c2nc(OCC3CCCN3C)nc3c(F)c(-c4nc(N)cc(C)c4C(F)(F)F)c(Cl)cc23)C(C)C1
Second compound 0.00316 µM
  IC50: 753 nM
Second compound 0.01 µM
  IC50: 926 nM
Second compound 0.0316 µM
  IC50: 1710 nM
Second compound 0.1 µM
  IC50: 627 nM
Second compound 0.316 µM
  IC50: 1430 nM
Second compound 1 µM
  IC50: 1290 nM
[1]
  viability, T/C: 86.4%
[2]
  viability, T/C: 113%
[3]
  viability, T/C: 76.7%
[4]
  viability, T/C: 42.7%
[5]
  viability, T/C: 34.7%
[6]
  viability, T/C: 27.4%
[7]
  viability, T/C: 105%
[8]
  viability, T/C: 115%
[9]
  viability, T/C: 80.3%
[10]
  viability, T/C: 48.3%
[11]
  viability, T/C: 37.1%
[12]
  viability, T/C: 24.4%
[13]
  viability, T/C: 96.1%
[14]
  viability, T/C: 102%
[15]
  viability, T/C: 76.1%
[16]
  viability, T/C: 63.4%
[17]
  viability, T/C: 36.6%
[18]
  viability, T/C: 30.9%
[19]
  viability, T/C: 103%
[20]
  viability, T/C: 105%
[21]
  viability, T/C: 66%
[22]
  viability, T/C: 41.7%
[23]
  viability, T/C: 37.2%
[24]
  viability, T/C: 27.8%
[25]
  viability, T/C: 89.8%
[26]
  viability, T/C: 91.2%
[27]
  viability, T/C: 72%
[28]
  viability, T/C: 55.3%
[29]
  viability, T/C: 40%
[30]
  viability, T/C: 30.6%
[31]
  viability, T/C: 104%
[32]
  viability, T/C: 117%
[33]
  viability, T/C: 85.9%
[34]
  viability, T/C: 53.4%
[35]
  viability, T/C: 47%
[36]
  viability, T/C: 35.1%

## NC1c2ccccc2OC12CCN(c1cnc3c(N4CCCc5ncccc54)n[nH]c3n1)CC2 (centres undefined) + C=CC(=O)N1CCN(c2nc(OCC3CCCN3C)nc3c(F)c(-c4nc(N)cc(C)c4C(F)(F)F)c(Cl)cc23)C(C)C1
Second compound 0.00316 µM
  IC50: > 10000 nM
Second compound 0.01 µM
  IC50: > 10000 nM
Second compound 0.0316 µM
  IC50: > 10000 nM
Second compound 0.1 µM
  IC50: > 10000 nM
Second compound 0.316 µM
  IC50: > 10000 nM
Second compound 1 µM
  IC50: > 10000 nM
[1]
  viability, T/C: 104%
[2]
  viability, T/C: 128%
[3]
  viability, T/C: 83.3%
[4]
  viability, T/C: 82.7%
[5]
  viability, T/C: 79.5%
[6]
  viability, T/C: 61.7%
[7]
  viability, T/C: 99%
[8]
  viability, T/C: 122%
[9]
  viability, T/C: 107%
[10]
  viability, T/C: 72.2%
[11]
  viability, T/C: 98.7%
[12]
  viability, T/C: 62.6%
[13]
  viability, T/C: 120%
[14]
  viability, T/C: 126%
[15]
  viability, T/C: 86.9%
[16]
  viability, T/C: 89.3%
[17]
  viability, T/C: 77.1%
[18]
  viability, T/C: 56.2%
[19]
  viability, T/C: 124%
[20]
  viability, T/C: 129%
[21]
  viability, T/C: 98.8%
[22]
  viability, T/C: 67.5%
[23]
  viability, T/C: 73.3%
[24]
  viability, T/C: 54.7%
[25]
  viability, T/C: 124%
[26]
  viability, T/C: 138%
[27]
  viability, T/C: 87%
[28]
  viability, T/C: 84.4%
[29]
  viability, T/C: 76.2%
[30]
  viability, T/C: 56.8%
[31]
  viability, T/C: 122%
[32]
  viability, T/C: 119%
[33]
  viability, T/C: 76.1%
[34]
  viability, T/C: 87.4%
[35]
  viability, T/C: 91%
[36]
  viability, T/C: 60.4%
